Reference: patent US6277845A, “Hydrazono-benzazulene derivatives, pharmaceutical compositions and intermediates” (Aventis Pharma S.A., priority 1997, dated 2001)
Where a name gives a salt, the structure may show the parent alone.

Assays:
human αvβ3 receptor = human αvβ3 receptor (Homo sapiens, UniProt P05106+P06756); test: Bond displacement / binding competition test: Vitronectin/Vitronectin Receptor (αvβ3), plate assay; conditions: human vitronectin coated plates, 3 hours at ambient temperature, read-out: Binding competition test Vn/VR (αvβ3) IC50
Protocol: Pharmacological Study of the Products of the Invention 1--Study by the Products of the Invention of the Bond Displacement: Vitronectin/Vitronectin Receptor (αvβ3) 96-well MaxiSorp plates are coated overnight at 4° C., with 100 μl of human Vitronectin (cf Yatohgo et al. Cell., Structure and fraction 13: 281-292 (1988)) at 2 μg/ml, (Dilution in coating buffer).
The next day, the wells are emptied and the ligands (Vitronectin) are then fixed (see fixation buffer) for 1 hour at ambient temperature under gentle agitation.
The wells are washed six times (see washing buffer), then the following are added per well and in this order:
40 μl of incubation buffer, 10 μl of the dilution of the product to be tested, (the products are diluted in a 50/50 mixture of DMSO-H2 O) 50 μl of human αvβ 3 receptor (cf Pytela et al. Methods Enzymol (1987) 144:475) (dilution in incubation buffer, adapted according to the batch of receptor and according to the ligand).
The ligand, the human αvβ3 receptor and the products to be studied are incubated for 3 hours at ambient temperature under gentle agitation.
The wells are again washed six times, then incubated for 2 hours at ambient temperature under gentle agitation, in the presence of 100 μl of 4B12-HRP antibody, anti-receptor coupled to a peroxidase (the 4B12-HRP antibody is diluted in incubation buffer. The dilution is adapted according to the batch of receptor).
The wells are then washed six times before measurement of ligand-receptor bond is carried out using a peroxidase developer kit (TMB Microwell Peroxidase Substrate System Kirkegaard: Ref. cat. 50-76-00).
This kit contains a flask A of substrate (3,3', 5,5'-tetramethylbenzidine at 0.4 g/l) and a flask B (H2 O2 at 0.02% in Citrate/Citric acid buffer). Extemporaneously, one volume of A is mixed with one volume of B, then the reaction mixture is distributed at the rate of 100 µl/well. The enzymatic reaction develops in 12' for Vitronectin/αvβ3, then its development is stopped by the addition of 100 μl of 1M phosphoric acid.
The optical density is measured at 450 nm. […]
coating buffer: 0.05 M Carbonate, NaOH pH 9.6 fixation buffer: PBS containing 0.5% of BSA (pH 7.4) washing buffer: PBS containing 0.05% of Tween 20 (pH 7.4)
The following curve is plotted: the percentage of bond of human vitronectin as a function of the logarithm of the concentration of each product tested.
For each product the IC50 is determined according to the following formula:
BO=Maximum bond in the absence of any product
Bmin=Minimum bond in the presence of the highest concentration of product.

osteoclasts = conditions: cited from earlier work
bone resorption [1] = conditions: Sato et al.; cited from earlier work
bone resorption [2] = conditions: in vivo in the rat, Fisher et al.; cited from earlier work

| Compound | IC50 (human αvβ3 receptor) | inhibition of the adhesion of the osteoclasts to bone (osteoclasts) | inhibition of bone resorption in tissues cultured in vitro (bone resorption [1]) | inhibition of bone resorption in vivo (bone resorption [2]) |
| --- | --- | --- | --- | --- |
| COc1c(SCCC(NC(=O)OCc2ccccc2)C(=O)O)cc2c(c1OC)C1=C(CCC1)C(=NNC1=NCCN1)CC2 (racemic) [Example 1, S-[4-[(4,5-dihydro-1H-imidazol-2-yl)hydrazono]-9,10-dimethoxy-1,2,3,4,5,6-hexahydro-8-benz[e]azulenyl]-N-[(phenylmethoxy)carbonyl]-DL-homocysteine] | 0.04 µM | – | – | – |
| O=C(NC(CC[S+]([O-])c1ccc2c(c1)CCC(=NN=C1NCCN1)C1=C2CCC1)C(=O)O)OCc1ccccc1 (stereo not shown) [Example 6, 4-[[4-[(2-imidazolidinylidene)hydrazono]-1,2,3,4,5,6-hexahydro-8-benz[e]azulenyl]sulphinyl]-2-[[(phenylmethoxy)carbonyl]amino]-butanoic acid] | 0.23 µM | – | – | – |
| Echistatin | – | inhibitor of the adhesion of the osteoclasts to bone | powerful inhibitor of bone resorption | powerful inhibitor of bone resorption |

Further compounds by falling IC50 (human αvβ3 receptor), results first:

| IC50 (human αvβ3 receptor) | Compound | inhibition of the adhesion of the osteoclasts to bone (osteoclasts) | inhibition of bone resorption in tissues cultured in vitro (bone resorption [1]) | inhibition of bone resorption in vivo (bone resorption [2]) |
| --- | --- | --- | --- | --- |
| 0.033 µM | O=C(NC(CCS(=O)(=O)c1ccc2c(c1)CCC(=NNC1=NCCN1)C1=C2CCC1)C(=O)O)OCc1ccccc1 (stereo not shown) [Example 5, hydrochloride of 4-[[4-[(2-imidazoli-dinylidene)hydrazono]-1,2,3,4,5,6-hexahydro-8-benz[e]azulenyl]sulphonyl]-2-[[(phenylmethoxy)carbonyl]amino]-butanoic acid] | – | – | – |
| 0.03 µM | O=C(NC(CCSc1ccc2c(c1)CCC(=NN=C1NCCN1)C1=C2CCC1)C(=O)O)OCc1ccccc1 (racemic) [Example 4, S-[4-[(2-imidazolidinylidene)hydrazono]-1,2,3,4,5,6-hexahydro-8-benz[e]azulenyl]-N-[(phenylmethoxy)carbonyl]-DL-homocysteine] | – | – | – |
